Experimental data published in ChEMBL document CHEMBL5260833, “An overview of quinazolines: Pharmacological significance and recent developments” (Eur J Med Chem, 2018).

Experiments:
Format in all cases: functional
Rattus norvegicus [1] = assay: Anticonvulsant activity in ip dosed albino rat measured after 1 hrs
Rattus norvegicus [2] = assay: Antiinflammatory activity in carrageenan induced rat at assessed as reduction in paw edema 50 mg/kg, po relative to control; set-up: scale not given: the % may be the effect or the level left
Tobacco mosaic virus = assay: Antiviral activity against TMV at 500 microg/ml; settings: dose 500 µg/ml

| Structure (SMILES) | Activity (Rattus norvegicus [1]) | Activity (Rattus norvegicus [2]) | also measured |
| --- | --- | --- | --- |
| Cc1nc2ccc(Br)cc2c(=O)n1NC1=NOC(c2ccc(O)cc2)C1 (stereo not given) | 50% |  |  |
| CC(=O)N1N=C(Nn2c(C)nc3ccccc3c2=O)CC1c1ccc(O)cc1 (stereo not given) | 50% |  |  |
| CC(C)c1ccc(/C=C/C(=O)NN2C(=O)CC2c2nc3ccc(Br)cc3c(=O)n2-c2cccc(Cl)c2)cc1 (stereo not given) |  | 10.28% |  |
| O=C(/C=C/c1ccccc1)NNCc1nc2ccc(Br)cc2c(=O)n1-c1cccc(Cl)c1 |  | 10.28% |  |
| CC(=O)N1N=C(Nn2c(C)nc3ccc(Br)cc3c2=O)CC1c1ccc(N(C)C)cc1 (stereo not given) | 50% |  |  |
| Cc1nc2ccc(Br)cc2c(=O)n1NC1=NOC(c2ccc(N(C)C)cc2)C1 (stereo not given) | 50% |  |  |
| Cc1nc2ccc(Br)cc2c(=O)n1NC(=O)/C=C/c1ccc(O)cc1 | 50% |  |  |
| NNCc1nc2ccccc2c(=O)n1-c1ccccc1Cl |  | 10.28% |  |
| COc1cc(/C=C/C(=O)NN2C(=O)CC2c2nc3ccccc3c(=O)n2-c2ccccc2Cl)ccc1O (stereo not given) |  | 10.28% |  |
| NNCc1nc2ccc(Br)cc2c(=O)n1-c1ccccc1 |  | 10.28% |  |
| COc1cc(/C=C/C(=O)NN2C(=O)CC2c2nc3ccccc3c(=O)n2-c2ccccc2OC)ccc1O (stereo not given) |  | 10.28% |  |
| CC(=O)NNCc1nc2ccc(Br)cc2c(=O)n1-c1ccccc1 |  | 10.28% |  |
| COc1cc(/C=C/C(=O)NNCc2nc3ccccc3c(=O)n2-c2ccccc2Cl)ccc1O |  | 10.28% |  |
| CN(C)c1ccc(/C=C/C(=O)NNCc2nc3ccccc3c(=O)n2-c2ccccc2Cl)cc1 |  | 10.28% |  |
| Cc1nc2ccccc2c(=O)n1NC1=NOC(c2ccc(N(C)C)cc2)C1 (stereo not given) | 50% |  |  |
| Cc1nc2ccccc2c(=O)n1/C=C/c1cccc(Cl)c1Cl |  |  | Activity (Tobacco mosaic virus): 54% |
| O=C(/C=C/c1ccccc1)NN1C(=O)CC1c1nc2ccc(Br)cc2c(=O)n1-c1cccc(Cl)c1 (stereo not given) |  | 10.28% |  |
| O=c1c2ccccc2nc(-c2ccccc2)n1/C=C/c1cc(Cl)cc(Cl)c1 |  |  | Activity (Tobacco mosaic virus): 54% |
| COc1ccc(/C=C/C(=O)NNCc2nc3ccccc3c(=O)n2-c2ccccc2Cl)cc1 |  | 10.28% |  |
| Cc1nc2ccc(Br)cc2c(=O)n1/C=C/c1ccc(F)cc1 |  |  | Activity (Tobacco mosaic virus): 54% |
| Cc1nc2ccc(Br)cc2c(=O)n1/C=C/c1ccccc1O |  |  | Activity (Tobacco mosaic virus): 54% |
| COc1ccc(/C=C/C(=O)Nn2c(C)nc3ccccc3c2=O)cc1 | 50% |  |  |
| COc1cc(C2CC(Nn3c(C)nc4ccccc4c3=O)=NO2)ccc1O (stereo not given) | 50% |  |  |
| CC(=O)N1N=C(Nn2c(C)nc3ccc(Br)cc3c2=O)CC1c1ccc(O)cc1 (stereo not given) | 50% |  |  |
| O=c1c2ccccc2nc(-c2ccncc2)n1/C=C/c1cccc(Cl)c1Cl |  |  | Activity (Tobacco mosaic virus): 54% |

| Structure (SMILES) | Activity (Rattus norvegicus [1]) | Activity (Rattus norvegicus [2]) | also measured |
| --- | --- | --- | --- |
| O=c1c2ccccc2nc(-c2ccccc2)n1/C=C/c1cccc(Cl)c1 |  |  | Activity (Tobacco mosaic virus): 54% |
| COc1ccc(/C=C/n2c(C)nc3ccc(Br)cc3c2=O)c(OC)c1 |  |  | Activity (Tobacco mosaic virus): 54% |
| COc1ccc(/C=C/C(=O)Nn2c(C)nc3ccc(Br)cc3c2=O)cc1 | 50% |  |  |
| O=c1c2ccccc2nc(-c2ccncc2)n1/C=C/c1ccc(F)cc1 |  |  | Activity (Tobacco mosaic virus): 54% |
| COc1ccc(C2CC(Nn3c(C)nc4ccccc4c3=O)=NN2C(C)=O)cc1 (stereo not given) | 50% |  |  |
| CC(C)c1ccc(/C=C/C(=O)NN2C(=O)CC2c2nc3ccc(Br)cc3c(=O)n2-c2ccccc2)cc1 (stereo not given) |  | 10.28% |  |
| COc1cc(/C=C/C(=O)NN2C(=O)CC2c2nc3ccc(Br)cc3c(=O)n2-c2ccccc2)ccc1O (stereo not given) |  | 10.28% |  |
| O=c1c2ccccc2nc(-c2ccncc2)n1/C=C/c1ccccc1 |  |  | Activity (Tobacco mosaic virus): 54% |
| COc1ccc(C2CC(Nn3c(C)nc4ccc(Br)cc4c3=O)=NN2C(C)=O)cc1 (stereo not given) | 50% |  |  |
| COc1cc(/C=C/C(=O)NNCc2nc3ccc(Br)cc3c(=O)n2-c2ccccc2)ccc1O |  | 10.28% |  |
| COc1cc(C2CC(Nn3c(C)nc4ccc(Br)cc4c3=O)=NO2)ccc1O (stereo not given) | 50% |  |  |
| CC(=O)Nn1c(C)nc2ccc(Br)cc2c1=O | 50% |  |  |
| COc1ccc(OC)c(/C=C/n2c(C)nc3ccc(Br)cc3c2=O)c1 |  |  | Activity (Tobacco mosaic virus): 54% |
| CC(=O)N1N=C(Nn2c(C)nc3ccccc3c2=O)CC1c1ccc(N(C)C)cc1 (stereo not given) | 50% |  |  |
| Cc1nc2ccc(Br)cc2c(=O)n1/C=C/c1cc([N+](=O)[O-])ccc1Cl |  |  | Activity (Tobacco mosaic virus): 54% |
| CC(=O)N1N=C(Nn2c(C)nc3ccccc3c2=O)CC1c1ccccc1 (stereo not given) | 50% |  |  |
| CC(=O)NNCc1nc2ccccc2c(=O)n1-c1ccccc1Cl |  | 10.28% |  |
| Cc1nc2ccc(Br)cc2c(=O)n1/C=C/c1cccc(F)c1 |  |  | Activity (Tobacco mosaic virus): 54% |
| O=C(/C=C/c1ccccc1)NN1C(=O)CC1c1nc2ccccc2c(=O)n1-c1ccccc1Cl (stereo not given) |  | 10.28% |  |
| O=c1c2ccccc2nc(-c2ccccc2)n1/C=C/c1ccc(Cl)c([N+](=O)[O-])c1 |  |  | Activity (Tobacco mosaic virus): 54% |
| COc1ccc(/C=C/C(=O)NN2C(=O)CC2c2nc3ccccc3c(=O)n2-c2ccccc2Cl)cc1 (stereo not given) |  | 10.28% |  |
| Cc1nc2ccccc2c(=O)n1NC(=O)/C=C/c1ccc(N(C)C)cc1 | 50% |  |  |
| COc1ccc(/C=C/C(=O)NN2C(=O)CC2c2nc3ccc(Br)cc3c(=O)n2-c2cccc(Cl)c2)cc1 (stereo not given) |  | 10.28% |  |
| COc1cc(/C=C/C(=O)Nn2c(C)nc3ccccc3c2=O)ccc1O | 50% |  |  |
| Cc1nc2ccc(Br)cc2c(=O)n1/C=C/c1ccc(Cl)c([N+](=O)[O-])c1 |  |  | Activity (Tobacco mosaic virus): 54% |

| Structure (SMILES) | Activity (Rattus norvegicus [1]) | Activity (Rattus norvegicus [2]) | also measured |
| --- | --- | --- | --- |
| Cc1nc2ccc(Br)cc2c(=O)n1/C=C/c1cc(O)cc(Cl)c1 |  |  | Activity (Tobacco mosaic virus): 54% |
| COc1ccccc1-n1c(CNN)nc2ccccc2c1=O |  | 10.28% |  |
| Cc1nc2ccc(Br)cc2c(=O)n1/C=C/c1ccccc1C(F)(F)F |  |  | Activity (Tobacco mosaic virus): 54% |
| COc1cc(/C=C/C(=O)NNCc2nc3ccc(Br)cc3c(=O)n2-c2cccc(Cl)c2)ccc1O |  | 10.28% |  |
| O=C(/C=C/c1ccccc1)NNCc1nc2ccccc2c(=O)n1-c1ccccc1Cl |  | 10.28% |  |
| O=c1c2ccccc2nc(-c2ccccc2)n1/C=C/c1cccc(C(F)(F)F)c1 |  |  | Activity (Tobacco mosaic virus): 54% |
| Cc1nc2ccc(Br)cc2c(=O)n1NC1=NOC(c2ccccc2)C1 (stereo not given) | 50% |  |  |
| O=c1c2ccccc2nc(CBr)n1-c1ccccc1Cl |  | 10.28% |  |
| Cc1nc2ccccc2c(=O)n1NC1=NOC(c2ccccc2)C1 (stereo not given) | 50% |  |  |
| Cc1nc2ccc(Br)cc2c(=O)n1NC(=O)/C=C/c1ccccc1 | 50% |  |  |
| COc1ccccc1-n1c(CNNC(C)=O)nc2ccccc2c1=O |  | 10.28% |  |
| CC(C)c1ccc(/C=C/C(=O)NNCc2nc3ccc(Br)cc3c(=O)n2-c2cccc(Cl)c2)cc1 |  | 10.28% |  |
| COc1ccc(C2CC(Nn3c(C)nc4ccc(Br)cc4c3=O)=NO2)cc1 (stereo not given) | 50% |  |  |
| O=c1c2ccccc2nc(-c2ccccc2)n1/C=C/c1ccc(F)c(F)c1 |  |  | Activity (Tobacco mosaic virus): 54% |
| Cc1nc2ccc(Br)cc2c(=O)n1/C=C/c1ccccc1F |  |  | Activity (Tobacco mosaic virus): 54% |
| CC(C)c1ccc(/C=C/C(=O)NN2C(=O)CC2c2nc3ccccc3c(=O)n2-c2ccccc2Cl)cc1 (stereo not given) |  | 10.28% |  |
| Cc1nc2ccccc2c(=O)n1NC(=O)/C=C/c1ccccc1 | 50% |  |  |
| O=c1c2cc(Br)ccc2nc(CBr)n1-c1ccccc1 |  | 10.28% |  |
| COc1ccc(/C=C/C(=O)NN2C(=O)CC2c2nc3ccc(Br)cc3c(=O)n2-c2ccccc2)cc1 (stereo not given) |  | 10.28% |  |
| Cc1nc2ccc(Br)cc2c(=O)n1/C=C/c1c(Cl)cccc1Cl |  |  | Activity (Tobacco mosaic virus): 54% |
| COc1cc(/C=C/C(=O)NN2C(=O)CC2c2nc3ccc(Br)cc3c(=O)n2-c2cccc(Cl)c2)ccc1O (stereo not given) |  | 10.28% |  |
| NNCc1nc2ccc(Br)cc2c(=O)n1-c1cccc(Cl)c1 |  | 10.28% |  |
| Cc1nc2ccccc2c(=O)n1NC1=NOC(c2ccc(O)cc2)C1 (stereo not given) | 50% |  |  |
| Cc1nc2ccc(Br)cc2c(=O)n1/C=C/c1ccc(F)c(F)c1 |  |  | Activity (Tobacco mosaic virus): 54% |
| COc1ccc(/C=C/C(=O)NNCc2nc3ccc(Br)cc3c(=O)n2-c2cccc(Cl)c2)cc1 |  | 10.28% |  |

| Structure (SMILES) | Activity (Rattus norvegicus [1]) | Activity (Rattus norvegicus [2]) | also measured |
| --- | --- | --- | --- |
| COc1ccccc1-n1c(C2CC(=O)N2NC(=O)/C=C/c2ccc(C(C)C)cc2)nc2ccccc2c1=O (stereo not given) |  | 10.28% |  |
| Cc1nc2ccc(Br)cc2c(=O)n1/C=C/c1ccc(Cl)cc1Cl |  |  | Activity (Tobacco mosaic virus): 54% |
| O=c1c2cc(Br)ccc2nc(CBr)n1-c1cccc(Cl)c1 |  | 10.28% |  |
| CC(=O)Nn1c(C)nc2ccccc2c1=O | 50% |  |  |
| O=c1c2ccccc2nc(-c2ccncc2)n1/C=C/c1ccccc1Cl |  |  | Activity (Tobacco mosaic virus): 54% |
| CC(=O)N1N=C(Nn2c(C)nc3ccc(Br)cc3c2=O)CC1c1ccccc1 (stereo not given) | 50% |  |  |
| O=c1c2ccccc2nc(-c2ccccc2)n1/C=C/c1cccc(Cl)c1Cl |  |  | Activity (Tobacco mosaic virus): 54% |
| COc1ccc(/C=C/C(=O)NNCc2nc3ccc(Br)cc3c(=O)n2-c2ccccc2)cc1 |  | 10.28% |  |
| COc1ccccc1-n1c(CBr)nc2ccccc2c1=O |  | 10.28% |  |
| COc1cc(/C=C/C(=O)Nn2c(C)nc3ccc(Br)cc3c2=O)ccc1O | 50% |  |  |
| COc1ccc(C2CC(Nn3c(C)nc4ccccc4c3=O)=NO2)cc1 (stereo not given) | 50% |  |  |
| Cc1nc2ccccc2c(=O)n1NC(=O)/C=C/c1ccc(O)cc1 | 50% |  |  |
| Cc1nc2ccc(Br)cc2c(=O)n1/C=C/c1cccc(C(F)(F)F)c1F |  |  | Activity (Tobacco mosaic virus): 54% |
| COc1ccc(/C=C/n2c(C)nc3ccc(Br)cc3c2=O)cc1OC |  |  | Activity (Tobacco mosaic virus): 54% |
| COc1cc(/C=C/C(=O)NNCc2nc3ccccc3c(=O)n2-c2ccccc2OC)ccc1O |  | 10.28% |  |
| Cc1nc2ccc(Br)cc2c(=O)n1/C=C/c1cccc(Cl)c1 |  |  | Activity (Tobacco mosaic virus): 54% |
| COc1cc(C2CC(Nn3c(C)nc4ccccc4c3=O)=NN2C(C)=O)ccc1O (stereo not given) | 50% |  |  |
| COc1cc(C2CC(Nn3c(C)nc4ccc(Br)cc4c3=O)=NN2C(C)=O)ccc1O (stereo not given) | 50% |  |  |
| O=C(/C=C/c1ccccc1)NNCc1nc2ccc(Br)cc2c(=O)n1-c1ccccc1 |  | 10.28% |  |
| Cc1nc2ccc(Br)cc2c(=O)n1/C=C/c1cccc([N+](=O)[O-])c1 |  |  | Activity (Tobacco mosaic virus): 54% |
| Cc1nc2ccc(Br)cc2c(=O)n1NC(=O)/C=C/c1ccc(N(C)C)cc1 | 50% |  |  |
| COc1ccccc1-n1c(CNNC(=O)/C=C/c2ccc(C(C)C)cc2)nc2ccccc2c1=O |  | 10.28% |  |
| CC(C)c1ccc(/C=C/C(=O)NNCc2nc3ccc(Br)cc3c(=O)n2-c2ccccc2)cc1 |  | 10.28% |  |
| CC(=O)NNCc1nc2ccc(Br)cc2c(=O)n1-c1cccc(Cl)c1 |  | 10.28% |  |
| O=C(/C=C/c1ccccc1)NN1C(=O)CC1c1nc2ccc(Br)cc2c(=O)n1-c1ccccc1 (stereo not given) |  | 10.28% |  |
